Molecular target: T1, IRAK4 (Homo sapiens, UniProt Q9NWZ3)
T1 sequence (Q9NWZ3 1-460): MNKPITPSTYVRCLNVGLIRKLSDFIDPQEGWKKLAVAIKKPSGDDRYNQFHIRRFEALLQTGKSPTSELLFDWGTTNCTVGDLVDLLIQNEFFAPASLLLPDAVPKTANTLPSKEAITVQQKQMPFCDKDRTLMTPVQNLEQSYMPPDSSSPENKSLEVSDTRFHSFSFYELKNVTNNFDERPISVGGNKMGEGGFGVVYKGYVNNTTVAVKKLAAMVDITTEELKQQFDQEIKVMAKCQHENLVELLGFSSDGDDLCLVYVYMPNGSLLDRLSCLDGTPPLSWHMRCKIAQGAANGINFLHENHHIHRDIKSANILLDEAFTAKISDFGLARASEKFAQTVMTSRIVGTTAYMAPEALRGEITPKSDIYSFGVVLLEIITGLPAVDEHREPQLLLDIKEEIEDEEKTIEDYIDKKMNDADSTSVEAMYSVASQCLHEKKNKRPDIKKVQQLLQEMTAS
Assay: 2-hour 1 mM ATP IRAK4 Biochemical assay (as above, but with 100 pM IRAK4 and 1 mM ATP)
Conditions: IRAK4 MSD BIOCHEMICAL (1 mM ATP) IC50 (μM), 100 pM IRAK4, 2 hours
Procedure: The 2-hour 10 μM ATP Biochemical Assay employs a MesoScale Detection (MSD) format.
The activity is quenched with 11 μl of 70 mM EDTA, pH 8.
To detect the phosphorylated biotinylated peptide substrate, 30 μl of the quenched reaction mixture is added to equivalent wells of a 384 well streptavidin coated MesoScale plate (Meso Scale Discovery #L21SA-1). After a 1 hour incubation of the plate for 1 hour at room temperature with gentle mixing, the plate wells are washed 3 times with 50 mM Tris, pH 7.5, 150 mM NaCl, 0.02% Tween-20.
A 25 μl volume of 1:500 anti-P-Threonine Rabbit polyclonal Antibody plus 1:500 Goat-anti-Rabbit Sulfo Tag Antibody (Meso Scale Discovery R32AB-1) in 50 mM Tris, pH 7.5, 150 mM NaCl, 0.02% Tween-20 plus 2% BSA is then added to each well. After a 1-hour incubation of the plate for 1 hour at room temperature with gentle mixing, the plate wells are washed, 3 times with 50 mM Tris, pH 7.5, 150 mM NaCl, 0.02% Tween-20. A 40 μl volume of 2×MSD Read Buffer (Meso Scale Discovery R92TC-1) is added to each well, and the plate is read immediately in an MSD Plate Reader (Meso Scale Discovery).
The 2-hour 1 mM ATP IRAK4 Biochemical assay was performed as described above, but with 100 pM IRAK4 and 1 mM ATP.

| IC50 | SMILES |
| --- | --- |
| 0.016 µM | COc1cc(NC(=O)c2cccc(C(F)F)n2)cn2cc([C@]3(C)C[C@@H](OC)C3)nc12 [Example 271, 6-(difluoromethyl)-N-(8-methoxy-2-((1r*,3r*)-3-methoxy-1-methylcyclobutyl)imidazo[1,2-a]pyridin-6-yl)picolinamide] |
| 0.012 µM | COc1ncccc1C(=O)Nc1cn2cc(C34CCC(C)(C3)OC4)nc2c(F)c1OC(C)C (stereo not drawn) [Example 435, N-(8-fluoro-7-isopropoxy-2-(1-methyl-2-oxabicyclo[2.2.1]heptan-4-yl)imidazo[1,2-a]pyridin-6-yl)-2-methoxynicotinamide 2,2,2-trifluoroacetate] |
| 0.001 µM | C[C@@H]1C[C@H](Oc2cc3nc(C4CCOCC4)cn3cc2NC(=O)c2cccc(C(F)F)n2)C[C@H](C)O1 [Example 187, 6-(difluoromethyl)-N-(7-(((2R*,4R*,6S*)-2,6-dimethyltetrahydro-2H-pyran-4-yl)oxy)-2-(tetrahydro-2H-pyran-4-yl)imidazo[1,2-a]pyridin-6-yl)picolinamide] |
| 0.005 µM | COc1nc(NC(=O)c2cccc(C(F)F)n2)cn2cc([C@@]34CC[C@@](C)(C3)OC4)nc12 (single isomer, unassigned) [Example 276, 6-(Difluoromethyl)-N-(8-methoxy-2-((1S*,4R*)-1-methyl-2-oxabicyclo[2.2.1]heptan-4-yl)imidazo[1,2-a]pyrazin-6-yl)picolinamide] |
| 0.002 µM | CCCOc1nc(NC(=O)c2cccc(C(F)F)n2)cn2cc(C34COC(C)(C3)C4)nc12 [Example 574, 6-(difluoromethyl)-N-(2-(1-methyl-2-oxabicyclo[2.1.1]hexan-4-yl)-8-propoxyimidazo[1,2-a]pyrazin-6-yl)picolinamide] |
| 0.007 µM | CCc1cccc(C(=O)Nc2cn3cc(C4CCOCC4)nc3cn2)n1 [Example 438, 6-ethyl-N-(2-(tetrahydro-2H-pyran-4-yl)imidazo[1,2-a]pyrazin-6-yl)picolinamide] |
| 0.039 µM | COc1nc(NC(=O)c2cccc(C)c2F)cn2cc(C34COC(C)(C3)C4)nc12 [Example 444, 2-fluoro-N-(8-methoxy-2-(1-methyl-2-oxabicyclo[2.1.1]hexan-4-yl)imidazo[1,2-a]pyrazin-6-yl)-3-methylbenzamide] |
| 0.007 µM | CCOc1cc(NC(=O)c2cccc(C(F)F)n2)cn2cc([C@@H]3C4COC[C@H]43)nc12 (relative stereo) [Example 306, N-(2-((1R*,5S*,6s*)-3-oxabicyclo[3.1.0]hexan-6-yl)-8-ethoxyimidazo[1,2-a]pyridin-6-yl)-6-(difluoromethyl)picolinamide] |
| 0.013 µM | COCc1cc2nc(C3CCOCC3)cn2cc1NC(=O)c1cccc(C(F)F)n1 [Example 314, 6-(difluoromethyl)-N-(7-(methoxymethyl)-2-(tetrahydro-2H-pyran-4-yl)imidazo[1,2-a]pyridin-6-yl)picolinamide] |
| 0.001 µM | CC(C)Oc1nc2nc(C34COC(C)(C3)C4)cn2cc1NC(=O)c1cccn(C(F)F)c1=O [Example 496, 1-(difluoromethyl)-N-(7-isopropoxy-2-(1-methyl-2-oxabicyclo[2.1.1]hexan-4-yl)imidazo[1,2-a]pyrimidin-6-yl)-2-oxo-1,2-dihydropyridine-3-carboxamide 2,2,2-trifluoroacetate] |
| 0.006 µM | CCOc1cc(NC(=O)c2cccc(C(F)(F)F)n2)cn2cc(C3CCCOC3)nc12 (single isomer, unassigned) [Example 287, N-(8-ethoxy-2-(tetrahydro-2H-pyran-3-yl)imidazo[1,2-a]pyridin-6-yl)-6-(trifluoromethyl)picolinamide] |
| 0.001 µM | COc1ncccc1C(=O)Nc1cn2cc(C34COC(C)(C3)C4)nc2cc1OC(C)C(F)(F)F (single isomer, unassigned) [Example 319, 2-methoxy-N-(2-(1-methyl-2-oxabicyclo[2.1.1]hexan-4-yl)-7-((1,1,1-trifluoropropan-2-yl)oxy)imidazo[1,2-a]pyridin-6-yl)nicotinamide] |
| 0.036 µM | COc1ncccc1C(=O)Nc1cn2cc(C3CCOCC3)nc2c(OC)n1 [Example 458, 2-methoxy-N-(8-methoxy-2-(tetrahydro-2H-pyran-4-yl)imidazo[1,2-a]pyrazin-6-yl)nicotinamide 2,2,2-trifluoroacetate] |
| 0.007 µM | CC(C)Oc1nc2nc(C34COC(C)(C3)C4)cn2cc1NC(=O)c1ccnc2ccnn12 [Example 495, N-(7-isopropoxy-2-(1-methyl-2-oxabicyclo[2.1.1]hexan-4-yl)imidazo[1,2-a]pyrimidin-6-yl)pyrazolo[1,5-a]pyrimidine-7-carboxamide] |
| 0.025 µM | CCCOc1ncccc1C(=O)Nc1cn2cc(C3CCOCC3)nc2c(OC)n1 [Example 460, N-(8-methoxy-2-(tetrahydro-2H-pyran-4-yl)imidazo[1,2-a]pyrazin-6-yl)-2-propoxynicotinamide] |
| 0.006 µM | COc1ccccc1C(=O)Nc1cn2cc(C34COC(C)(C3)C4)nc2nc1OC1CC1 [Example 350, N-(7-cyclopropoxy-2-(1-methyl-2-oxabicyclo[2.1.1]hexan-4-yl)imidazo[1,2-a]pyrimidin-6-yl)-2-methoxybenzamide] |
| 0.205 µM | COc1nc(NC(=O)c2ccn(CC(C)C)n2)cn2cc(C3CCOCC3)nc12 [Example 464, 1-isobutyl-N-(8-methoxy-2-(tetrahydro-2H-pyran-4-yl)imidazo[1,2-a]pyrazin-6-yl)-1H-pyrazole-3-carboxamide] |
| 0.095 µM | COc1nc(NC(=O)c2ccn(C(C)C)n2)cn2cc(C3CCOCC3)nc12 [Example 462, 1-isopropyl-N-(8-methoxy-2-(tetrahydro-2H-pyran-4-yl)imidazo[1,2-a]pyrazin-6-yl)-1H-pyrazole-3-carboxamide 2,2,2-trifluoroacetate] |
| 0.001 µM | Cc1nn(C)cc1-c1cn2cc(NC(=O)c3cccc(C(F)F)n3)c(OC(C)C)cc2n1 [Example 263, 6-(difluoromethyl)-N-(2-(1,3-dimethyl-1H-pyrazol-4-yl)-7-isopropoxyimidazo[1,2-a]pyridin-6-yl)picolinamide] |
| 0.003 µM | COc1cc(NC(=O)c2cccc(C(F)F)n2)cn2cc(C3CCCOC3)nc12 (single isomer, unassigned) [Example 270, 6-(difluoromethyl)-N-(8-methoxy-2-(tetrahydro-2H-pyran-3-yl)imidazo[1,2-a]pyridin-6-yl)picolinamide] |
| 0.016 µM | CC12CC(c3cn4cc(NC(=O)c5cccc(C(F)F)n5)nc(OCc5ccccc5)c4n3)(CO1)C2 [Example 199, N-(8-(benzyloxy)-2-(1-methyl-2-oxabicyclo[2.1.1]hexan-4-yl)imidazo[1,2-a]pyrazin-6-yl)-6-(difluoromethyl)picolinamide] |
| 0.002 µM | CCOc1cc2nc(C3C4COCC43)cn2cc1NC(=O)c1ccn(C2CC2(F)F)n1 (stereo not drawn) [Example 374, N-(2-(3-oxabicyclo[3.1.0]hexan-6-yl)-7-ethoxyimidazo[1,2-a]pyridin-6-yl)-1-(2,2-difluorocyclopropyl)-1H-pyrazole-3-carboxamide] |
| 0.001 µM | CC(C)Oc1nc2nc(C34COC(C)(C3)C4)cn2cc1NC(=O)c1cnn2cccc(F)c12 [Example 349, 4-fluoro-N-(7-isopropoxy-2-(1-methyl-2-oxabicyclo[2.1.1]hexan-4-yl)imidazo[1,2-a]pyrimidin-6-yl)pyrazolo[1,5-a]pyridine-3-carboxamide] |
| 0.001 µM | CC(C)Oc1nc2nc(C34COC(C)(C3)C4)cn2cc1NC(=O)c1cccc2ncnn12 [Example 348, N-(7-isopropoxy-2-(1-methyl-2-oxabicyclo[2.1.1]hexan-4-yl)imidazo[1,2-a]pyrimidin-6-yl)-[1,2,4]triazolo[1,5-a]pyridine-5-carboxamide] |
| 0.015 µM | COc1ccccc1C(=O)Nc1cn2cc(C34COC(C)(C3)C4)nc2c(OC(C)C)n1 [Example 477, N-(8-isopropoxy-2-(1-methyl-2-oxabicyclo[2.1.1]hexan-4-yl)imidazo[1,2-a]pyrazin-6-yl)-2-methoxybenzamide 2,2,2-trifluoroacetate] |
| 0.001 µM | CC(C)Oc1nc2nc(C34COC(C)(C3)C4)cn2cc1NC(=O)c1csc(C(F)(F)F)n1 [Example 499, N-(7-isopropoxy-2-(1-methyl-2-oxabicyclo[2.1.1]hexan-4-yl)imidazo[1,2-a]pyrimidin-6-yl)-2-(trifluoromethyl)thiazole-4-carboxamide] |

| SMILES | IC50 |
| --- | --- |
| Cc1nc(C(=O)Nc2cn3cc(C45COC(C)(C4)C5)nc3c(OC3CCC3)n2)co1 [Example 484, N-(8-cyclobutoxy-2-(1-methyl-2-oxabicyclo[2.1.1]hexan-4-yl)imidazo[1,2-a]pyrazin-6-yl)-2-methyloxazole-4-carboxamide] | 0.02 µM |

Reference: patent publication US20220089592A1, “IMIDAZO[1,2-A]PYRIDINYL DERIVATIVES AS IRAK4 INHIBITORS” (priority 2019, published 2022)
